# Assay results taken from BindingDB's records for doi:10.1021/jm800588x (Eberhard Karls University Tuebingen, 2008).
# Molecular target: T1, Polyunsaturated fatty acid 5-lipoxygenase (Homo sapiens, UniProt P09917)
# T1 sequence (P09917 whole entry): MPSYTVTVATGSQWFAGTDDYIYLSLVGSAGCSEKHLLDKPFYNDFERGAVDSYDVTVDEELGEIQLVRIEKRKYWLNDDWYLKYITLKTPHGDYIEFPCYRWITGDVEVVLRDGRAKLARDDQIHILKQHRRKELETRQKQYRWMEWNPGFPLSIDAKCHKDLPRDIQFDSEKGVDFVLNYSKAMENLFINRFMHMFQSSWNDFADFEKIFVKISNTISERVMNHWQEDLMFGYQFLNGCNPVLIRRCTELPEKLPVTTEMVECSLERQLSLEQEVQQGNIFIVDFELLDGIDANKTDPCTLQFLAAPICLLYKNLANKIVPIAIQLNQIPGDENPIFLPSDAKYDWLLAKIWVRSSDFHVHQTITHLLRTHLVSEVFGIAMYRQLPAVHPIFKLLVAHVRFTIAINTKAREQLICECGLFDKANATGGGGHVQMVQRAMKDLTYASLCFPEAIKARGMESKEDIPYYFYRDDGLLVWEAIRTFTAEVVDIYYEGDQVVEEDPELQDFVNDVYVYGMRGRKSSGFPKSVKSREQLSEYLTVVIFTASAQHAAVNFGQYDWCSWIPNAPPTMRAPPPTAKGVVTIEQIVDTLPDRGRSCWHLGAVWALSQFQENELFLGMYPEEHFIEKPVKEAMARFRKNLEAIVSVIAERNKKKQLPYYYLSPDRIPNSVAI
# Test: Determination of 5-LO Product Formation in Intact Cells (EC50/IC50)
# Conditions: pH 7.4; 37 °C
# Experimental: For assays of intact cells, 5000,000 freshly isolated PMNL cells were resuspended in PGC buffer. After preincubation with the test compounds for 15 min at RT, 5-LO product formation was started by addition of ionophore A23187 plus arachidonic acid. Formed 5-LO metabolites were extracted and analyzed by HPLC. 5-LO product formation is expressed as ng of 5-LO products per 1000,000 cells, which includes LTB4 and its all-trans isomers, and 5(S)-hydro(pero)xy-6-trans- 8,11,14-cis-eicosatetraenoic acid.
row,Structure (SMILES),EC50
1,CCOC(=O)C(Sc1nc(Cl)cc(Nc2ccc3ncccc3c2)n1)c1ccccc1 (stereo not given) [ethyl 2-{[4-chloro-6-(quinolin-6-ylamino)pyrimidin-2-yl]sulfanyl}-2-phenylacetate],1200 nM
2,CCCCCCC(Sc1nc(Cl)cc(Oc2ccc3ncccc3c2)n1)C(=O)OCC (stereo not given) [ethyl 2-{[4-chloro-6-(quinolin-6-yloxy)pyrimidin-2-yl]sulfanyl}octanoate],1700 nM

# More lines, now with the values ahead:
row,EC50,Structure (SMILES)
1,2600 nM,CCOC(=O)CSc1nc(Cl)cc(Nc2ccc3ncccc3c2)n1 [ethyl 2-{[4-chloro-6-(quinolin-6-ylamino)pyrimidin-2-yl]sulfanyl}acetate]
2,1800 nM,"CCOC(=O)C(Sc1nc(Cl)cc(Nc2cccc(C)c2C)n1)c1ccccc1 (stereo not given) [ethyl 2-({4-chloro-6-[(2,3-dimethylphenyl)amino]pyrimidin-2-yl}sulfanyl)-2-phenylacetate]"
3,4100 nM,"CCCCCCC(Sc1nc(Cl)cc(Nc2cccc(C)c2C)n1)C(=O)O (stereo not given) [2-({4-chloro-6-[(2,3-dimethylphenyl)amino]pyrimidin-2-yl}sulfanyl)octanoic acid]"
4,1100 nM,CCCCC(Sc1nc(Cl)cc(Nc2ccc3ncccc3c2)n1)C(=O)OCC (stereo not given) [ethyl 2-{[4-chloro-6-(quinolin-6-ylamino)pyrimidin-2-yl]sulfanyl}hexanoate]
5,3900 nM,"O=C(O)CSc1nc(Cl)cc(Nc2cccc3c2CCC3)n1 [2-{[4-chloro-6-(2,3-dihydro-1H-inden-4-ylamino)pyrimidin-2-yl]sulfanyl}acetic acid]"
6,3200 nM,"CCOC(=O)CSc1nc(Cl)cc(Nc2cccc3c2CCC3)n1 [ethyl 2-{[4-chloro-6-(2,3-dihydro-1H-inden-4-ylamino)pyrimidin-2-yl]sulfanyl}acetate]"

# Molecular target: T1, Polyunsaturated fatty acid 5-lipoxygenase
# Test: Determination of 5-LO Product Formation in Cell-Free Systems (IC50).
# Conditions: pH 7.4; 37 °C
# Experimental: For determination of the activity of 5-LO in 100000g supernatants, aliquots of the supernatants were added to reaction mix, and were preincubated with the test compounds before arachidonic acid was added to start 5-LO product formation. Formed 5-LO metabolites were extracted and analyzed by HPLC. 5-LO product includes LTB4 and its all-trans isomers, and 5(S)-hydro(pero)xy-6-trans- 8,11,14-cis-eicosatetraenoic acid. IC50s are expressed as mean +/- SE, obtained from measurements at 4-5 different concentrations of test compounds, and determined using Graphpad Instat (Graphpad Software Inc., San Diego, CA). EC50/IC50 values were obtained from product formation in PMNL intact cells.
row,EC50,Structure (SMILES)
1,37000 nM,CCCCCCC(Sc1nc(Cl)cc(NCc2ccc3ncccc3c2)n1)C(=O)OCC (stereo not given) [ethyl 2-({4-chloro-6-[(quinolin-6-ylmethyl)amino]pyrimidin-2-yl}sulfanyl)octanoate]
2,19000 nM,CCCCCCC(Sc1nc(Cl)cc(Nc2ccc3ncccc3c2)n1)C(=O)OCC (stereo not given) [ethyl 2-{[4-chloro-6-(quinolin-6-ylamino)pyrimidin-2-yl]sulfanyl}octanoate]
